{"source": "patent US8093281B2", "about": "“Indazoles as glucocorticoid receptor ligands” (Glaxo Group Limited, priority 2005, dated 2012)", "key": {"Progesterone Receptor": {"molecular_target": "T1, Progesterone Receptor (Homo sapiens, UniProt P06401)", "T1 construct": "expressed in transfected cells; host or cells: CV-1 cells transduced with PRb-BacMam and MMTV-BacMam (luciferase reporter)", "T1 sequence (P06401 1-933)": "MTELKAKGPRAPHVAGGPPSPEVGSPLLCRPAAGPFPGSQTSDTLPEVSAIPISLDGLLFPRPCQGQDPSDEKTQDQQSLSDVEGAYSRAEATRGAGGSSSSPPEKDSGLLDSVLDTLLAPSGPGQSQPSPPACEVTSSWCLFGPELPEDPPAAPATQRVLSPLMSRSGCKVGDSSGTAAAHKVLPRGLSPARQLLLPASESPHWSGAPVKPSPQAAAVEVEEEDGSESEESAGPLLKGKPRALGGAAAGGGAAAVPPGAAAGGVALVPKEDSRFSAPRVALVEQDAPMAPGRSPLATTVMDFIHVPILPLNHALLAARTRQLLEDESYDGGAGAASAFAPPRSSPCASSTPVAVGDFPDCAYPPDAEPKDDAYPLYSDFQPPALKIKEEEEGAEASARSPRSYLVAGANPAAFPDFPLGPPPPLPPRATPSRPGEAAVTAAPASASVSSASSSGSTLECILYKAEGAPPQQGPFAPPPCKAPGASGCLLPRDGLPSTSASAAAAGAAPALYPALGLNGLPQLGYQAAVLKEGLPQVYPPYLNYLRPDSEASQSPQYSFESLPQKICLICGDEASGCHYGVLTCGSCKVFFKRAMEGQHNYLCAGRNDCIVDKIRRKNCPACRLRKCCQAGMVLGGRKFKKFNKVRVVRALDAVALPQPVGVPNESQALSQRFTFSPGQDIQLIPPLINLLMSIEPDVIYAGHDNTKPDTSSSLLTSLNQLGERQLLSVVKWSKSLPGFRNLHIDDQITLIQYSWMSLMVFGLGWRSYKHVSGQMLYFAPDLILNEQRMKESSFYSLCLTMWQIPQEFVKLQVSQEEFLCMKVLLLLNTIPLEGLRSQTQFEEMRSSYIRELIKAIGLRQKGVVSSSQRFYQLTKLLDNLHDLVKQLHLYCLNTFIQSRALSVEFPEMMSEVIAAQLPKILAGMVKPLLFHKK", "experiment": "Assay for progesterone receptor activity (CV-1 cells transduced with PRb-BacMam and MMTV-BacMam)", "type": "cell-based", "settings": "24 h, read-out: pEC50, progesterone receptor activity (converted)", "description": "A T225 flask of CV-1 cells at a density of 80% confluency was washed with PBS, detached from the flask using 0.25% trypsin and counted using a Sysmex KX-21N. Cells were diluted in DMEM containing 10% Hyclone, 2 mM […] and 1% Pen/Strep at 140 cells/μl and transduced with 10% PRb-BacMam and 10% MMTV-BacMam. […] of suspension cells were dispensed to each well of white Nunc 384-well plates, containing compounds at the required concentration. After 24 h 10 μl of Steady Glo were added to each well of the plates. Plates were incubated in the dark for 10 min before reading them on a Viewlux reader. Dose response curves were constructed from which pEC50 values were estimated."}, "NFkB activity": {"system": "NFkB activity", "experiment": "Glucocorticoid mediated transrepression of NFkB activity (A549 cells, ELAM promoter alkaline phosphatase reporter, TNFα stimulated)", "type": "cell-based", "settings": "Homo sapiens, A549, 16 h, Human A549 lung epithelial cells, 3 ng/ml human recombinant TNFα, read-out: pEC50, transrepression of NFkB activity (converted)", "text": "Human A549 lung epithelial cells were engineered to contain a secreted placental alkaline phosphatase gene under the control of the distal region of the NFkB dependent ELAM promoter as previously described in Ray, K. P., Farrow, S., Daly, M., Talabot, F. and Searle, N. “Induction of the E-selectin promoter by interleukin 1 and tumour necrosis factor alpha, and inhibition by glucocorticoids” Biochemical Journal (1997) 328: 707-15.\nCompounds were solvated and diluted in DMSO, and transferred directly into assay plates such that the final concentration of DMSO was 0.7%. Following the addition of cells (40K per well), plates were incubated for 1 hr prior to the addition of 3 ng/ml human recombinant TNFα. Following continued incubation for 16 hr, alkaline phosphatase activity was determined by measuring the change in optical density at 405 nm with time following the addition of 0.7 volumes of assay buffer (1 mg/ml p-nitrophenylphosphate dissolved in 1M diethanolamine, 0.28M NaCl, 0.5 mM MgCl2). Dose response curves were constructed from which EC50 values were estimated."}}}
{"smiles": "COc1ccc(F)cc1C(C)(C)CC(O)(CNc1cc(C)cc2c1cnn2-c1ccc(F)cc1)C(F)(F)F", "note": "(single isomer, unassigned) [Example 26-A, 1,1,1-Trifluoro-4-[5-fluoro-2-(methyloxy)phenyl]-2-({[1-(4-fluorophenyl)-6-methyl-1H-indazol-4-yl]amino}methyl)-4-methyl-2-pentanol]", "values": [{"measurement": "EC50", "setting": "Progesterone Receptor", "result": "> 10", "unit": "µM"}]}
{"smiles": "COc1ccc(F)cc1C(C)(C)CC(O)(CNc1cc(C)cc2c1cnn2-c1ccccc1)C(F)(F)F", "note": "(single isomer, unassigned) [Example 15-A, 1,1,1-Trifluoro-4-[5-fluoro-2-(methyloxy)phenyl]-4-methyl-2-{[(6-methyl-1-phenyl-1H-indazol-4-yl)amino]methyl}-2-pentanol]", "values": [{"measurement": "EC50", "setting": "Progesterone Receptor", "result": "> 10", "unit": "µM"}]}
{"smiles": "COc1ccc(-n2ncc3c(NCC(O)(CC(C)(C)c4cc(F)ccc4OC)C(F)(F)F)cccc32)cc1", "note": "(racemic) [Example 3, 1,1,1-Trifluoro-4-[5-fluoro-2-(methyloxy)phenyl-4-methyl-2-({1-[4-(methyloxy)phenyl]-1H-indazol-4-yl}amino)methyl]-2-pentanol]", "values": [{"measurement": "EC50", "setting": "NFkB activity", "result": "< 0.00316", "unit": "µM"}, {"measurement": "EC50", "setting": "Progesterone Receptor", "result": "> 10", "unit": "µM"}]}
{"smiles": "COc1ccc(F)cc1C(C)(C)CC(O)(CNc1cc(C)cc2c1cnn2-c1ccccc1F)C(F)(F)F", "note": "(single isomer, unassigned) [Example 25-B, 1,1,1-Trifluoro-4-[5-fluoro-2-(methyloxy)phenyl]-2-({[1-(2-fluorophenyl)-6-methyl-1H-indazol-4-yl]amino}methyl)-4-methyl-2-pentanol]", "values": [{"measurement": "EC50", "setting": "Progesterone Receptor", "result": "> 10", "unit": "µM"}]}
{"smiles": "Cc1cc(NCC(O)(CC(C)(C)c2cc(F)ccc2O)C(F)(F)F)c2cnn(-c3cccc(O)c3)c2c1", "note": "(single isomer, unassigned) [Example 24-A, 4-Fluoro-2-[4,4,4-trifluoro-3-hydroxy-3-({[1-(3-hydroxyphenyl)-6-methyl-1H-indazol-4-yl]amino}methyl)-1,1-dimethylbutyl]phenol]", "values": [{"measurement": "EC50", "setting": "Progesterone Receptor", "result": "> 10", "unit": "µM"}]}
{"smiles": "COc1ccc(F)cc1C(C)(C)CC(O)(CNc1cccc2c1cnn2-c1ccncc1)C(F)(F)F", "note": "(racemic) [Example 5, 1,1,1-Trifluoro-4-[5-fluoro-2-(methyloxy)phenyl]-4-methyl-2-({[1-(4-pyridinyl)-1H-indazol-4-yl]amino}methyl)-2-pentanol]", "values": [{"measurement": "EC50", "setting": "NFkB activity", "result": "< 0.00316", "unit": "µM"}, {"measurement": "EC50", "setting": "Progesterone Receptor", "result": "> 10", "unit": "µM"}]}
{"smiles": "COc1ccc(F)cc1C(C)(C)CC(O)(CNc1cccc2c1cnn2-c1ccc(F)cc1F)C(F)(F)F", "note": "(single isomer, unassigned) [Example 4-A, 2-({[1-(2,4-Difluorophenyl)-1H-indazol-4-yl]amino}methyl)-1,1′-trifluoro-4-[5-fluoro-2-(methyloxy)phenyl]-4-methyl-2-pentanol]", "values": [{"measurement": "EC50", "setting": "Progesterone Receptor", "result": "> 10", "unit": "µM"}]}
{"smiles": "CCOC(=O)c1cccc(-n2ncc3c(NCC(O)(CC(C)(C)c4cc(F)ccc4OC)C(F)(F)F)cccc32)c1", "note": "(single isomer, unassigned) [Example 6-A, Ethyl 3-(4-{[4-[5-fluoro-2-(methyloxy)phenyl]-2-hydroxy-4-methyl-2-(trifluoromethyl)pentyl]amino}-1H-indazol-1-yl)benzoate]", "values": [{"measurement": "EC50", "setting": "Progesterone Receptor", "result": "> 10", "unit": "µM"}]}
{"smiles": "COc1ccc(F)cc1C(C)(C)CC(O)(CNc1cccc2c1cnn2-c1ccccc1)C(F)(F)F", "note": "(racemic) [Example 7, 1,1,1-Trifluoro-4-[5-fluoro-2-(methyloxy)phenyl]-4-methyl-2-{[(1-phenyl-1H-indazol-4-yl)amino]methyl}-2-pentanol]", "values": [{"measurement": "EC50", "setting": "NFkB activity", "result": "< 0.00316", "unit": "µM"}, {"measurement": "EC50", "setting": "Progesterone Receptor", "result": "> 10", "unit": "µM"}]}
{"smiles": "COc1ccc(F)cc1C(C)(C)CC(O)(CNc1cccc2c1cnn2-c1ccc(F)cc1)C(F)(F)F", "note": "(single isomer, unassigned) [Example 2-A, 1,1,1-Trifluoro-4-[5-fluoro-2-(methyloxy)phenyl]-2-({[1-(4-fluorophenyl)-1H-indazol-4-yl]amino}methyl)-4-methyl-2-pentanol]", "values": [{"measurement": "EC50", "setting": "Progesterone Receptor", "result": "> 10", "unit": "µM"}]}
{"smiles": "COc1ccc(F)cc1C(C)(C)CC(O)(CNc1cc(C)cc2c1cnn2-c1ccc(F)cc1F)C(F)(F)F", "note": "(single isomer, unassigned) [Example 16-B, 2-({[1-(2,4-Difluorophenyl)-6-methyl-1H-indazol-4-yl]amino}methyl)-1,1,1-trifluoro-4-[5-fluoro-2-(methyloxy)phenyl]-4-methyl-2-pentanol]", "values": [{"measurement": "EC50", "setting": "Progesterone Receptor", "result": "> 10", "unit": "µM"}]}
